Consider 17 molecules from the CheMixHub viscosity set.

Where “and” joins values, the source holds several entries; their conditions need not be identical. Equal values may be shown once. ± gives the uncertainty stated by the source.

One may read the viscosity as the internal friction of a fluid under shear. Consider `C1CCC(C2CCCCC2)CC1`, for which the viscosity reads like this: (293.15 K, 102 kPa) 4.06 ± 0.03 mPa·s; (303.15 K, 102 kPa) 3.18 ± 0.02 mPa·s; (313.15 K, 102 kPa) 2.56 ± 0.02 mPa·s; (323.15 K, 102 kPa) 2.1 ± 0.02 mPa·s.

`CC(=O)[O-].C[N+]1(CC2CO2)CCCC1=O` (centres undefined): the viscosity is, setting by setting: (293.15 K, 101 kPa) 6.55 ± 0.15 mPa·s; (298.15 K, 101 kPa) 5.55 ± 0.13 mPa·s; (303.15 K, 101 kPa) 4.77 ± 0.11 mPa·s; (308.15 K, 101 kPa) 4.13 ± 0.09 mPa·s and 4.14 ± 0.09 mPa·s; (313.15 K, 101 kPa) 3.62 ± 0.08 mPa·s.

Where the note is “298.15 K, 101 kPa”, `CCCCC(=O)O` gave a viscosity of 1.97 ± 0.051 mPa·s.

On to `CCCCCCCCCCCCCC(=O)OCC`, for which the viscosity by setting is: (308.15 K, 100 kPa) 3.322 ± 0.078 mPa·s; (318.15 K, 100 kPa) 2.699 ± 0.063 mPa·s; (323.15 K, 100 kPa) 2.451 ± 0.058 mPa·s.

For `CCCCCCCCCCCCOC(C)=O`, the viscosity (303.15 K, 101.3 kPa) turned out to be 3.089 ± 0.024 mPa·s.

With `CCCCCCCC[N+](C)(CCCCCCCC)CCCCCCCC.[Cl-]`, the viscosity runs as follows: (298.15 K, 101 kPa) 2391 ± 800 mPa·s; (303.15 K, 101 kPa) 1602 ± 480 mPa·s; (308.15 K, 101 kPa) 1067 ± 280 mPa·s; (313.15 K, 101 kPa) 766.1 ± 180 mPa·s; (318.15 K, 101 kPa) 568.9 ± 120 mPa·s.

In the case of `CCCCO`, the viscosity is 2.873 ± 0.17 mPa·s and 2.61 ± 0.15 mPa·s and 2.868 ± 0.032 mPa·s (293.15 K, 100 kPa); 2.929 ± 0.066 mPa·s and 2.868 ± 0.015 mPa·s (293.15 K, 101 kPa); 2.9 ± 0.04 mPa·s (293.15 K, 101.33 kPa); 2.507 ± 0.031 mPa·s (298 K, 101.3 kPa); 2.52 ± 0.02 mPa·s (298 K, 101.33 kPa); 2.442 ± 0.03 mPa·s (298.15 K, 101.3 kPa). Moreover, the viscosity reads like this: (303 K, 101.33 kPa) 2.095 ± 0.22 mPa·s; (303.15 K, 101 kPa) 2.121 ± 0.017 mPa·s and 2.002 ± 0.027 mPa·s and 2.12 ± 0.026 mPa·s; (303.15 K, 101.3 kPa) 2.129 ± 0.027 mPa·s; (308 K, 101.3 kPa) 1.903 ± 0.19 mPa·s; (308.15 K, 101.3 kPa) 1.856 ± 0.023 mPa·s; (308.15 K, 101.33 kPa) 1.929 ± 0.012 mPa·s and 1.949 ± 0.024 mPa·s. The viscosity was 1.62 ± 0.16 mPa·s (313 K, 101.3 kPa); 1.7 ± 0.027 mPa·s and 1.687 ± 0.06 mPa·s (313.15 K, 101 kPa); 1.692 ± 0.04 mPa·s and 1.817 ± 0.022 mPa·s (313.15 K, 101.3 kPa); 1.456 ± 0.15 mPa·s (318 K, 101.3 kPa); 1.563 ± 0.018 mPa·s (318.15 K, 100 kPa); 1.487 mPa·s (318.15 K, 101.33 kPa). For the same molecule, the viscosity by setting is: (323 K, 100 kPa) 1.215 ± 0.24 mPa·s; (323 K, 101.3 kPa) 1.334 ± 0.13 mPa·s; (323.15 K, 101 kPa) 1.361 ± 0.11 mPa·s and 1.329 ± 0.018 mPa·s; (323.15 K, 101.33 kPa) 1.393 ± 0.044 mPa·s and 1.393 ± 0.013 mPa·s and 1.09 ± 0.17 mPa·s.

For the molecule `CCCCOCCOCCOCCCC`, the viscosity reads like this: (298.15 K, 101.3 kPa) 2.16 ± 0.033 mPa·s; (308.15 K, 101.3 kPa) 1.762 ± 0.027 mPa·s; (318.15 K, 101.3 kPa) 1.408 ± 0.022 mPa·s.

On to `CCCC[n+]1ccc(C)cc1.N#C[S-]`, for which the viscosity is, setting by setting: (298.15 K, 101 kPa) 85.69 ± 12 mPa·s; (308.15 K, 101 kPa) 51.75 ± 0.55 mPa·s; (318.15 K, 101 kPa) 33.88 ± 2.1 mPa·s.

The molecule `CCOC(=O)C(Cl)(Cl)Cl` yielded a viscosity (323.15 K, 101 kPa) of 1.037 ± 0.013 mPa·s.

`CCOC(=O)Cn1cc[n+](C)c1.[Cl-]` gave a viscosity (298.15 K, 101 kPa) of 348.6 ± 16 mPa·s.

As for `CCn1cc[n+](C)c1.O=C([O-])C(F)(F)C(F)(F)C(F)(F)C(F)(F)F`, the viscosity reads like this: (298.15 K, 101 kPa) 107.5 ± 4.6 mPa·s; (308.15 K, 101 kPa) 65.87 ± 2.7 mPa·s; (318.15 K, 101 kPa) 43.09 ± 1.8 mPa·s.

On to `CSC`, for which, for the setting “293.15 K, 101 kPa”, the viscosity amounted to 0.307 ± 0.008 mPa·s.

`Cc1cccnc1` yielded a viscosity (298.15 K, 101 kPa) of 0.8723 ± 0.014 mPa·s.

With `Fc1c(F)c(F)c(F)c(F)c1F`, the viscosity amounted to 0.951 ± 0.009 mPa·s (293.15 K, 101 kPa); 0.9446 ± 0.0076 mPa·s (293.15 K, 101.33 kPa); 0.8695 ± 0.007 mPa·s (298.15 K, 101.33 kPa); 0.793 ± 0.008 mPa·s (303.15 K, 101 kPa); 0.7631 ± 0.0061 mPa·s (308.15 K, 101.33 kPa); 0.664 ± 0.007 mPa·s (313.15 K, 101 kPa). In addition, the viscosity is, setting by setting: (318.15 K, 101.33 kPa) 0.6708 ± 0.0054 mPa·s; (323.15 K, 101 kPa) 0.591 ± 0.006 mPa·s.

Regarding `NCCN1CCNCC1`, the viscosity is, setting by setting: (298.15 K, 100 kPa) 14.48 ± 1.4 mPa·s; (308.15 K, 100 kPa) 11.34 ± 1.1 mPa·s; (318.15 K, 100 kPa) 7.1 ± 0.71 mPa·s.

As for `NCCNCCN`, the viscosity by setting is: (298.15 K, 101.33 kPa) 5.52 ± 0.23 mPa·s; (308.15 K, 101.33 kPa) 3.865 ± 0.16 mPa·s; (318.15 K, 101.33 kPa) 3.048 ± 0.12 mPa·s; (323.15 K, 101.33 kPa) 2.698 ± 0.11 mPa·s.
